Reference: ChEMBL document CHEMBL1148802, “Discovery and synthesis of HIV integrase inhibitors: development of potent and orally bioavailable N-methyl pyrimidones” (J Med Chem, 2007)

Experiments:
[1] = Distribution coefficient, log D of the compound; format: physicochemical; details: octanol/water
[2] = Plasma half life in rhesus monkey at 1 mg/kg, po and 1 mg/kg, iv; format: ADME, organism-based, Macaca mulatta
[3] = Cmax in Sprague-Dawley rat at 3 mg/kg, iv and 3 mg/kg, po; format: ADME, organism-based; details: in vivo
[4] = Plasma half life in Sprague-Dawley rat at 3 mg/kg, iv and 3 mg/kg, po; format: ADME, organism-based
[5] = Plasma clearance in rhesus monkey at 1 mg/kg, po and 1 mg/kg, iv; format: ADME, organism-based, Macaca mulatta
[6] = AUC in Sprague-Dawley rat at 3 mg/kg, po; format: ADME, organism-based, Plasma; set-up: dose 3 mg/kg, route oral; details: Sprague-Dawley, plasma
Cytochrome P450 2C19 = Cytochrome P450 2C19 (Homo sapiens, UniProt P33261); experiment: Inhibition of human CYP2C19 at 100 uM; format: ADME
Chain of Cytochrome P450 2C19 (P33261 whole entry): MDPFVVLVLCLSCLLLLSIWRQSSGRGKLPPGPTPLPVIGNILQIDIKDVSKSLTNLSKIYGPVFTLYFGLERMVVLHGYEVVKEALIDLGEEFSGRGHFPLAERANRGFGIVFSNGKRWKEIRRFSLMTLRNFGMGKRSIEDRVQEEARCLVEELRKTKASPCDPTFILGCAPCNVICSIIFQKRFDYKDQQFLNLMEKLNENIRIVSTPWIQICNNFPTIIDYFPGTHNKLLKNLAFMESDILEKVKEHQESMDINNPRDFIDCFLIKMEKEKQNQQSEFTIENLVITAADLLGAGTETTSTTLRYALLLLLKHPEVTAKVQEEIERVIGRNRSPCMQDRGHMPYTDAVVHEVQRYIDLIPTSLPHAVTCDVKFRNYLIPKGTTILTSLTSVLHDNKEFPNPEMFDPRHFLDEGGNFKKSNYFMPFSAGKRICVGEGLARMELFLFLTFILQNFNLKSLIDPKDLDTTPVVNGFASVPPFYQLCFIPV

[7] = Plasma clearance in Sprague-Dawley rat at 3mg/kg, iv and 3mg/kg, po; format: ADME, organism-based
[8] = Oral bioavailability in Sprague-Dawley rat at 3 mg/kg; format: ADME, organism-based; details: in vivo
[9] = Oral bioavailability in rhesus monkey at 1 mg/kg; format: ADME, organism-based, Macaca mulatta; details: in vivo
[10] = test system: Human immunodeficiency virus 1; experiment: Antiviral activity against HIV13b in MT4 cells assessed as decrease in HIV1 p24 core antigen in presence of fetal bovine serum; format: functional, 3b
[11] = AUC in rhesus monkey at 1 mg/kg, po; format: ADME, organism-based, Macaca mulatta; set-up: dose 1 mg/kg, route oral; details: plasma
Cytochrome P450 2D6 = Cytochrome P450 2D6 (Homo sapiens, UniProt P10635); experiment: Inhibition of human CYP2D6 at 100 uM; format: ADME
Chain of Cytochrome P450 2D6 (P10635 whole entry): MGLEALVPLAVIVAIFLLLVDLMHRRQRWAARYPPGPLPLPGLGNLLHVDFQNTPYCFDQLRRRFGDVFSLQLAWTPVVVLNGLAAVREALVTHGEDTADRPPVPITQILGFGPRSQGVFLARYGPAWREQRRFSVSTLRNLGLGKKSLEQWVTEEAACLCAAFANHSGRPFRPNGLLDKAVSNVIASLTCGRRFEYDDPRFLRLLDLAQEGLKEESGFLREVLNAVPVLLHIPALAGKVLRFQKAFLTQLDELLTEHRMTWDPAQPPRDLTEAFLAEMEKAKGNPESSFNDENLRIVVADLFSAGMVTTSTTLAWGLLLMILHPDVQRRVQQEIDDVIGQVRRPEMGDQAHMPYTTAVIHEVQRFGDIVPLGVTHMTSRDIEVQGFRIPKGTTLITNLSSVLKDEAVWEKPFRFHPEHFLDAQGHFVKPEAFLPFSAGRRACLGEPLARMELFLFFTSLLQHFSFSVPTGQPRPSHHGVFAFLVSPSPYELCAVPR

[12] = Oral bioavailability in Beagle dog at 10 mg/kg; format: ADME, organism-based, Canis lupus familiaris; details: in vivo
[13] = Solubility at pH 7.4; format: physicochemical; details: buffer
[14] = AUC in Beagle dog at 10 mg/kg, po; format: ADME, organism-based, Canis lupus familiaris; set-up: dose 10 mg/kg, route oral; details: plasma
[15] = Plasma clearance in Beagle dog at 4 mg/kg, iv and 10 mg/kg, po; format: ADME, organism-based, Canis lupus familiaris
[16] = Cmax in Beagle dog at 4 mg/kg, iv and 10 mg/kg, po; format: ADME, organism-based, Canis lupus familiaris; details: in vivo
[17] = Plasma half life in Beagle dog at 4 mg/kg, iv and 10 mg/kg, po; format: ADME, organism-based, Canis lupus familiaris
Cytochrome P450 1A2 = target: T1, Cytochrome P450 1A2 (Homo sapiens, UniProt P05177); experiment: Inhibition of human CYP1A2 at 100 uM; format: ADME
T1 sequence (P05177 whole entry): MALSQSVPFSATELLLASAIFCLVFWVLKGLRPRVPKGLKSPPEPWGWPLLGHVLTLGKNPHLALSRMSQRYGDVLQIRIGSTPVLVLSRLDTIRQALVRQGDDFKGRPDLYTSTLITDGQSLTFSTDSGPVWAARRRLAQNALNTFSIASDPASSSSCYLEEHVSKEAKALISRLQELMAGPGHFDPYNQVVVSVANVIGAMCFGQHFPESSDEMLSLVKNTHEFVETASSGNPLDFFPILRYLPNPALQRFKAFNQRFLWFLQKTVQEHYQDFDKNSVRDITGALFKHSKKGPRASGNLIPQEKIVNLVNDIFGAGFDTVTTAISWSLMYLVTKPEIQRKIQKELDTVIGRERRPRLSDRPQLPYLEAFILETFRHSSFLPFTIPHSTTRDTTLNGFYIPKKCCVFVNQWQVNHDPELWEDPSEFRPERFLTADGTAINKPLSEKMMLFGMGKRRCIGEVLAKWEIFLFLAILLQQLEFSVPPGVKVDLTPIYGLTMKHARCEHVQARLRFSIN

[18] = test system: Human immunodeficiency virus 1; experiment: Antiviral activity against HIV1 3b in MT4 cells assessed as decrease in […] p24 core antigen in presence of normal human serum; format: functional
Cytochrome P450 3A4 = Cytochrome P450 3A4 (Homo sapiens, UniProt P08684); experiment: Inhibition of human CYP3A4 at 100 uM; format: ADME
Chain of Cytochrome P450 3A4 (P08684 whole entry): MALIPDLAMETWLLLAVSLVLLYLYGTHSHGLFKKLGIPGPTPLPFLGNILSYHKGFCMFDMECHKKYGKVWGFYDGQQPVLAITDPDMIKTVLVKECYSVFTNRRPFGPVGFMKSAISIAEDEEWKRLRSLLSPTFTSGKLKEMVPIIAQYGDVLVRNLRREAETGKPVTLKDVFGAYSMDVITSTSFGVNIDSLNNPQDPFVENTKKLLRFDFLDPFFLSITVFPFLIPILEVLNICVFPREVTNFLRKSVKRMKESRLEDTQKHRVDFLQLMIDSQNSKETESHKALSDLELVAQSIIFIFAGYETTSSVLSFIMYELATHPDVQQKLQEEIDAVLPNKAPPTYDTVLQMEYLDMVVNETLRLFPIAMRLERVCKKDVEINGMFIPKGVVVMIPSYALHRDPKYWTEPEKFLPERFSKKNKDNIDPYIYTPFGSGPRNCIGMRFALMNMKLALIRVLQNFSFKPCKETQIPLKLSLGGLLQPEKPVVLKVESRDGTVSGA

Q: With `CN1CCOCC1c1nc(C(=O)NCc2ccc(F)cc2)c(O)c(=O)n1C.Cl` (single isomer, unassigned; (+)) as the compound, how does the “Log D” value [1] read?
A: 0.47

Q: And the half-life [2]?
A: 2 h

Q: What about the Cmax [3] of the same compound?
A: 5.6 µM

Q: What about the half-life [4] of the same compound?
A: 1.1 h

Q: And the clearance [5]?
A: 14 mL/min/kg

Q: What about the AUC [6] of the same compound?
A: 8 µM·h

Q: And the Activity (Cytochrome P450 2C19)?
A: Not Active

Q: What about the clearance [7] of the same compound?
A: 9 mL/min/kg

Q: And the bioavailability [8]?
A: 56%

Q: And the bioavailability [9]?
A: 73%

Q: And the CIC95 [10]?
A: 40 µM

Q: What about the AUC [11] of the same compound?
A: 2.2 µM·h

Q: And the Activity (Cytochrome P450 2D6)?
A: Not Active

Q: What about the bioavailability [12] of the same compound?
A: 69%

Q: And the solubility [13]?
A: 5800 µg/mL

Q: And the AUC [14]?
A: 136 µM·h

Q: What about the clearance [15] of the same compound?
A: 2.2 mL/min/kg

Q: What about the Cmax [16] of the same compound?
A: 35 µM

Q: And the half-life [17]?
A: 7.2 h

Q: What about the Activity (Cytochrome P450 1A2) of the same compound?
A: Not Active

Q: What about the CIC95 [18] of the same compound?
A: 65 µM

Q: And the Activity (Cytochrome P450 3A4)?
A: Not Active
